We go through one compound from the NIST ThermoML archive (doi:10.1016/j.tca.2005.06.034).

Data set [1] can be described thus: Molar enthalpy of transition or fusion. As to conditions: Crystal; DSC.
The conditions of data set [2]: Crystal.

The structures appear in SMILES notation. Numbers after ± are expanded uncertainties.

As for `CN1N=N[NH+](N)C1N.O=[N+]([O-])[O-]` (stereo not drawn) [1,5-diamino-4-methyl-4,5-dihydro-1H-tetrazol-1-ium nitrate], the “Molar enthalpy of transition or fusion” value in data set [1] was determined as 5.16e-06 ± 1.7e-07 kcal/mol. The mass density in data set [2] (571.3 K, 101.33 kPa, X-ray) stood at 1506 ± 2 kg/m3. Further, the Normal melting temperature in data set [2] (DTA) was 121.00 ± 1 °C.

A word on the mass density: it is the mass of a sample divided by its volume.
